Data published in US20230293525A1, “METHODS AND COMPOSITIONS FOR THE TREATMENT OF VIRAL INFECTIONS” (priority 2020, published 2023).

Test system: minor spliceosome snRNAs including U11, U12, U6atac, and U4atac
Assay: qPCR of minor spliceosome snRNAs in HEK 293 cells treated with Tenovin 1
Type: cell-based
Conditions: 10 μM, incubated 24 hours, qPCR normalized to RN7SK, versus DMSO

CC(=O)Nc1ccc(NC(=S)NC(=O)c2ccc(C(C)(C)C)cc2)cc1 [Tenovin 1]
levels of minor spliceosome snRNAs U11, U12, U6atac and U4atac (qPCR): successfully downregulates
